≈ marks a conversion by molar mass, not a printed value. Where “and” joins values, the source holds several entries; their conditions need not be identical. Identical values can stand only once. Like-named read-outs stand apart in the source and are kept apart here.
Legend:
[1] = system: Mycobacterium tuberculosis H37Ra ITM-M006710 (ATCC 9431); assay: Microdilution broth, modified Microplate Alamar Blue Assay, whole cell growth inhibition; format: cell-based; conditions: for MIC: Mycobacterium tuberculosis, read-out: MIC Mtb H37Ra
[2] = system: Mycobacterium aurum DSM 43999 (ATCC 23366); assay: as above; format: cell-based; conditions: for MIC: Mycolicibacterium aurum, read-out: MIC Mycobacterium aurum
[3] = system: Mycobacterium smegmatis DSM 43465 (ATCC 607); assay: as above; format: cell-based; conditions: for MIC: Mycolicibacterium smegmatis, read-out: MIC Mycobacterium smegmatis
[4] = system: HepG2 cells; assay: HepG2 cytotoxicity, CellTiter 96 (MTS) assay; format: cell-based, human; conditions: for IC50: read-out: HepG2 IC50; for SI, selectivity index: IC50 (HepG2)/MIC against Mtb H37Ra (in µM)
[5] = system: Candida albicans ATCC 24433, CCM 8320; assay: Antifungal microdilution broth method (EUCAST); format: cell-based
[6] = system: Candida krusei ATCC 6258, CCM 8271; assay: Antifungal microdilution broth method (EUCAST); format: cell-based; conditions: Pichia kudriavzevii
[7] = system: Candida parapsilosis ATCC 22019, CCM 8260; assay: Antifungal microdilution broth method (EUCAST); format: cell-based; conditions: Lodderomyces parapsilosis
[8] = system: Candida tropicalis ATCC 750, CCM 8264; assay: Antifungal microdilution broth method (EUCAST); format: cell-based
[9] = system: Aspergillus fumigatus ATCC 204305; assay: Antifungal microdilution broth method (EUCAST); format: cell-based
[10] = system: Aspergillus flavus CCM 8363; assay: Antifungal microdilution broth method (EUCAST); format: cell-based
[11] = system: Absidia corymbifera CCM 8077 (Lichtheimia corymbifera); assay: Antifungal microdilution broth method (EUCAST); format: cell-based
[12] = system: Trichophyton interdigitale ATCC 9533, CCM 8377; assay: Antifungal microdilution broth method (EUCAST); format: cell-based
[13] = system: Staphylococcus aureus spp.aureus ATCC 29213, CCM 4223; assay: Antibacterial microdilution broth method (EUCAST); format: cell-based; conditions: read-out: MIC SA
[14] = system: Staphylococcus aureus methicillin resistant ATCC 43300, CCM 4750; assay: microbe, parasite or virus in culture; format: cell-based; conditions: ATCC 43300 / CCM 4750 / MRSA, read-out: MIC MRSA
[15] = system: Staphylococcus epidermidis ATCC 12228, CCM 4418; assay: Antibacterial microdilution broth method (EUCAST); format: cell-based; conditions: read-out: MIC SE
[16] = system: Enterococcus faecalis ATCC 29212, CCM 4224; assay: Antibacterial microdilution broth method (EUCAST); format: cell-based; conditions: read-out: MIC EF
[17] = system: Escherichia coli ATCC 25922, CCM 3954; assay: Antibacterial microdilution broth method (EUCAST); format: cell-based; conditions: read-out: MIC EC
[18] = system: Acinetobacter baumanii ATCC 19606, DSM 30007; assay: Antibacterial microdilution broth method (EUCAST); format: cell-based; conditions: Acinetobacter baumannii
[19] = system: Pseudomonas aeruginosa ATCC 27853, CCM 3955; assay: Antibacterial microdilution broth method (EUCAST); format: cell-based; conditions: read-out: MIC PA
[20] = system: Klebsiella pneumoniae ATCC 10031, CCM 4415; assay: Antibacterial microdilution broth method (EUCAST)
[21] = in vitro, Middlebrook 7H9 broth, resazurin
[22] = Homo sapiens, HepG2, 24 h incubation, > means higher concentration not reproducible due to precipitation
[23] = ATCC204305, 24 h, read-out: MIC AF
[24] = ATCC204305, 48 h, read-out: MIC AF
[25] = CCM8363, 24 h, read-out: MIC AFla
[26] = CCM8363, 48 h, read-out: MIC AFla
[27] = CCM8077, 24 h, read-out: MIC AC
[28] = CCM8077, 48 h, read-out: MIC AC

5-Chloro-N-(5-chloro-2-hydroxyphenyl)pyrazine-2-carboxamide [Compound 6]
MIC Mtb H37Ra [1, 21]: ≥500 µg/mL | MIC Mycobacterium aurum [2, 21]: ≥500 µg/mL | MIC Mycobacterium smegmatis [3, 21]: ≥500 µg/mL | IC50 ([4]; 24 h incubation, > means higher concentration not reproducible due to precipitation): > 250 µM

C[C@@H]1[C@H](O)[C@@H](C)/C=C/C=C/C=C/C=C/C=C/C=C/C=C/[C@H](O[C@@H]2O[C@H](C)[C@@H](O)[C@H](N)[C@@H]2O)C[C@@H]2O[C@](O)(C[C@@H](O)C[C@@H](O)[C@H](O)CC[C@@H](O)C[C@@H](O)CC(=O)O[C@H]1C)C[C@H](O)[C@H]2C(=O)O [Amphotericin B, amphotericin B, reference compound]
MIC ([5]; 48 h, standards, read-out: MIC against Candida albicans): 0.5 µg/mL | MIC ([5]; Table 3, read-out: MIC CA (Candida albicans)): 0.54 µM | MIC ([5]; Table 3, standard, read-out: MIC CA (Candida albicans)): 0.5 µg/mL | MIC ([6]; 48 h, standards, read-out: MIC against C. krusei): 1 µg/mL | MIC ([6]; Table 3, standard, read-out: MIC CK (Candida krusei)): 1 µg/mL | MIC ([6]; Table 3, read-out: MIC CK (Candida krusei)): 1.08 µM | MIC ([7]; 48 h, standards, read-out: MIC against C. parapsilosis): 0.5 µg/mL | MIC ([7]; Table 3, standard, read-out: MIC CP (Candida parapsilosis)): 0.5 µg/mL | MIC ([7]; Table 3, read-out: MIC CP (Candida parapsilosis)): 0.54 µM | MIC ([8]; 48 h, standards, read-out: MIC against C. tropicalis): 1 µg/mL | MIC ([9]; ATCC204305, 48 h, standards, read-out: MIC against Aspergillus fumigatus): 1 µg/mL | MIC ([10]; CCM8363, 48 h, standards, read-out: MIC against Aspergillus flavus): 8 µg/mL | MIC ([11]; CCM8077, 48 h, standards, read-out: MIC against Lichtheimia corymbifera): 0.5 µg/mL | MIC ([12]; 72 h, standards, read-out: MIC against Trichophyton interdigitale): 2 µg/mL

O=C(Nc1cccc(C(F)(F)F)c1)c1cnc(Cl)cn1 [Compound 1, 5-Chloro-N-(3-(trifluoromethyl)phenyl)pyrazine-2-carboxamide]
MIC [1, 21]: 7.81 µg/mL | MIC [2, 21]: ≥ 500 µg/mL | MIC [3, 21]: ≥ 500 µg/mL | IC50 [4, 22]: 124 µM | SI, selectivity index [4]: 4.78

CCCNc1cnc(C(=O)Nc2cccc(C(F)(F)F)c2)cn1 [Compound 1a, 5-(Propylamino)-N-(3-(trifluoromethyl)phenyl)pyrazine-2-carboxamide]
MIC [1, 21]: 6.25 µg/mL | MIC [2]: ≥ 500 µg/mL | MIC [3]: ≥ 500 µg/mL | IC50 ([4]; Homo sapiens, HepG2, 24 h): > 25 µM | SI, selectivity index [4]: >1.3 | MIC ([13]; 24 h): > 500 µM | MIC ([13]; 48 h): > 500 µM | MIC ([14]; 24 h): > 500 µM | MIC ([14]; 48 h): > 500 µM | MIC ([15]; 24 h): > 500 µM | MIC ([15]; 48 h): > 500 µM | MIC ([16]; 24 h): > 500 µM | MIC ([16]; 48 h): > 500 µM | MIC ([17]; 24 h): > 500 µM | MIC ([17]; 48 h): > 500 µM | MIC ([18]; 24h): > 500 µM | MIC ([18]; 48h): > 500 µM | MIC ([19]; 72 h): > 500 µM | MIC ([19]; 120 h): > 500 µM | MIC ([5]; 24 h, read-out: MIC CA): > 125 µM | MIC ([5]; 48 h, read-out: MIC CA): > 125 µM | MIC ([6]; 24 h, read-out: MIC CK): > 125 µM | MIC ([6]; 48 h, read-out: MIC CK): > 125 µM | MIC ([7]; 24 h, read-out: MIC CP): > 125 µM | MIC ([7]; 48 h, read-out: MIC CP): > 125 µM | MIC ([8]; 24 h, read-out: MIC CT): > 125 µM | MIC ([8]; 48 h, read-out: MIC CT): > 125 µM | MIC [9, 23]: > 125 µM | MIC [9, 24]: > 125 µM | MIC [10, 25]: > 125 µM | MIC [10, 26]: > 125 µM | MIC [11, 27]: > 125 µM | MIC [11, 28]: > 125 µM | MIC ([12]; 72 h, read-out: MIC TI): > 125 µM | MIC ([12]; 120 h, read-out: MIC TI): > 125 µM | melting point: 155 to 156 °C | MIC KP ([20]; 24h): > 500 µM | MIC KP ([20]; 48h): > 500 µM

CCCCNc1cnc(C(=O)Nc2cccc(C(F)(F)F)c2)cn1 [Compound 1b, 5-(Butylamino)-N-(3-(trifluoromethyl)phenyl)pyrazine-2-carboxamide]
MIC ([1]; MIC converted to µM): 9.24 µM | MIC [1, 21]: 3.13 µg/mL | MIC [2]: 6.25 µg/mL (≈ 18.5 µM) | MIC [3]: 3.13 µg/mL (≈ 9.25 µM) | IC50 ([4]; Homo sapiens, HepG2, 24 h): 126 µM | SI, selectivity index [4]: 14 and 13.6 | MIC ([13]; 24 h): > 500 µM | MIC ([13]; 48 h): > 500 µM | MIC ([14]; 24 h): > 500 µM | MIC ([14]; 48 h): > 500 µM | MIC ([15]; 24 h): > 500 µM | MIC ([15]; 48 h): > 500 µM | MIC ([16]; 24 h): > 500 µM | MIC ([16]; 48 h): > 500 µM | MIC ([17]; 24 h): > 500 µM | MIC ([17]; 48 h): > 500 µM | MIC ([18]; 24h): > 500 µM | MIC ([18]; 48h): > 500 µM | MIC ([19]; 72 h): > 500 µM | MIC ([19]; 120 h): > 500 µM | MIC ([5]; 24 h, read-out: MIC CA): > 125 µM | MIC ([5]; 48 h, read-out: MIC CA): > 125 µM | MIC ([6]; 24 h, read-out: MIC CK): > 125 µM | MIC ([6]; 48 h, read-out: MIC CK): > 125 µM | MIC ([7]; 24 h, read-out: MIC CP): > 125 µM | MIC ([7]; 48 h, read-out: MIC CP): > 125 µM | MIC ([8]; 24 h, read-out: MIC CT): > 125 µM | MIC ([8]; 48 h, read-out: MIC CT): > 125 µM | MIC [9, 23]: > 125 µM | MIC [9, 24]: > 125 µM | MIC [10, 25]: > 125 µM | MIC [10, 26]: > 125 µM | MIC [11, 27]: > 125 µM | MIC [11, 28]: > 125 µM | MIC ([12]; 72 h, read-out: MIC TI): > 125 µM | MIC ([12]; 120 h, read-out: MIC TI): > 125 µM | melting point: 141 to 142 °C | MIC KP ([20]; 24h): > 500 µM | MIC KP ([20]; 48h): > 500 µM

O=C(Nc1cccc(O)c1)c1cnc(Cl)cn1 [Compound 2, 5-Chloro-N-(3-hydroxyphenyl)pyrazine-2-carboxamide]
MIC [1, 21]: 31.2 µg/mL | MIC [2, 21]: ≥ 500 µg/mL | MIC [3, 21]: ≥ 500 µg/mL | IC50 [4, 22]: > 500 µM | SI, selectivity index [4]: >3.99

Reference: article PMC7180572, “5-Alkylamino-N-phenylpyrazine-2-carboxamides: Design, Preparation, and Antimycobacterial Evaluation” (Molecules, 2020)
